Three molecules from ChEMBL document CHEMBL3044920, “Progress in understanding molecular mechanisms and evolution of resistance to succinate dehydrogenase inhibiting (SDHI) fungicides in phytopathogenic fungi” (Crop Prot, 2010) can be followed below.

Bounds are passed on as bounds.

The test system of one experiment is Botrytis cinerea. Kind of experiment: Antifungal activity against resistant Botryotinia fuckeliana isolates obtained from excessive treatment with Signum. The class given is functional, organism-based.
In experiment [1] the test system is Alternaria alternata. Briefly: Antifungal activity against boscalid-resistant Alternaria alternata expressing AaSDHC H134R mutant assessed as inhibition of mycelial growth at 10 ppm relative to untreated control. The class given is functional.
Experiment [2] relates to Alternaria alternata. Kind of experiment: Antifungal activity against wild type Alternaria alternata assessed as inhibition of mycelial growth at 10 ppm relative to untreated control. The class given is functional.
For experiment [3], the system named is Alternaria alternata. Kind of experiment: Antifungal activity against boscalid-resistant Alternaria alternata isolate Aa122 expressing AaSDHC H134R mutant. The class given is functional, organism-based.
Experiment [4] has as its system Alternaria alternata. Kind of experiment: Antifungal activity against boscalid-resistant Alternaria alternata expressing AaSDHD H133R mutant assessed as inhibition of mycelial growth at 10 ppm relative to untreated control. The class given is functional.
The subject of experiment [5] is Alternaria alternata. Kind of experiment: Antifungal activity against boscalid-resistant Alternaria alternata isolate Aa29 expressing AaSDHB H277Y mutant. The class given is functional, organism-based.
Experiment [6] concerns Alternaria alternata. Kind of experiment: Antifungal activity against boscalid-resistant Alternaria alternata expressing AaSDHB H277Y mutant assessed as inhibition of mycelial growth at 10 ppm relative to untreated control. The class given is functional.
Experiment [7] deals with Alternaria alternata. Briefly: Antifungal activity against boscalid-resistant Alternaria alternata isolate Aa111 expressing AaSDHB H277Y mutant. The class given is functional, organism-based.
The test system of experiment [8] is Alternaria alternata. Kind of experiment: Antifungal activity against wild type Alternaria alternata isolate Aa16. The class given is functional, organism-based.

Regarding `O=C(Nc1ccccc1-c1ccc(Cl)cc1)c1cccnc1Cl` [BOSCALID], the EC50 in the experiment with Botrytis cinerea is above 100 ppm; in the experiment with Alternaria alternata [3] it was above 50 ppm; in the experiment with Alternaria alternata [5], above 50 ppm; in the experiment on Alternaria alternata [7] it was above 50 ppm; with Alternaria alternata [8], 0.5 ppm. In addition, the inhibition at 10 ppm with Alternaria alternata [1] is 31.9%; in the experiment with Alternaria alternata [2], 87.2%; in the experiment with Alternaria alternata [4] it was 47.5%; in the experiment on Alternaria alternata [6] it was 30.7%.
On to `O=C(NCCc1ncc(C(F)(F)F)cc1Cl)c1ccccc1C(F)(F)F` [FLUOPYRAM], for which the inhibition at 10 ppm in the experiment with Alternaria alternata [1] was found to be 11.3%; with Alternaria alternata [2], 83%; in the experiment on Alternaria alternata [4], 16.9%; with Alternaria alternata [6], 41.3%. The EC50 with Alternaria alternata [3] was 5 ppm; with Alternaria alternata [5], 0.25 ppm; in the experiment on Alternaria alternata [7] it was 0.25 ppm; in the experiment with Alternaria alternata [8] it was below 0.25 ppm.
On to `CC(C)CC(C)c1sccc1NC(=O)c1cn(C)nc1C(F)(F)F` (racemic) [PENTHIOPYRAD], for which the inhibition at 10 ppm came out at 85.1% in the experiment on Alternaria alternata [1], 89.7% with Alternaria alternata [2], 88.7% in the experiment with Alternaria alternata [4] and 90.5% in the experiment on Alternaria alternata [6].
